Columns and labels:
Test in all cases: AUC of viability dose-response curve (% viability x log10 dose units); higher = less sensitive
Conditions in all cases: 48 h
SEM cells = system: SEM cells
Procedure, shortened: (§1)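 Leukemia cells adapted to each medium were seeded at 500 or 1000 cells/well in 1536-well plates and dosed with library compounds in DMSO at 11 threefold doses from 47 μM to 0.79 nM for 48 h at 37°C. CellTiter-Glo One luminescence was normalised per plate to DMSO and cell-free wells, then fitted with a four-parameter log-logistic model over log10 doses. Area under the curve was taken from this fit by the trapezoidal rule, with curves above full viability scaled and curves failing quality control removed.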

NOMO1 = system: NOMO1
Procedure, shortened: as §1

P12-Ichikawa = system: P12-Ichikawa
Procedure, shortened: as §1

[1] = RPMI 5 mM glucose + 10% dialyzed FBS

SMILES | AUC of viability dose-response curve (SEM cells; HPLM + 10% dialyzed FBS) | AUC of viability dose-response curve (SEM cells; RPMI 5 mM glucose + 10% FBS) | AUC of viability dose-response curve (SEM cells; [1]) | AUC of viability dose-response curve (NOMO1; HPLM + 10% dialyzed FBS) | AUC of viability dose-response curve (NOMO1; RPMI 5 mM glucose + 10% FBS) | AUC of viability dose-response curve (NOMO1; [1]) | AUC of viability dose-response curve (P12-Ichikawa; HPLM + 10% dialyzed FBS) | AUC of viability dose-response curve (P12-Ichikawa; RPMI 5 mM glucose + 10% FBS) | AUC of viability dose-response curve (P12-Ichikawa; [1])
Cc1cccc(C#Cc2ccccc2)n1 | 456 | 455 | 449 | 461 | 464 | 463 | 456 | 445 | 450
COC[C@@H](NC(C)=O)C(=O)NCc1ccccc1 | 466 | 449 | 456 | 457 | 467 | 466 | 453 | 465 | 466
Cc1cc(Nc2nc(N[C@@H](C)c3ncc(F)cn3)ncc2Cl)n[nH]1 | 399 | 336 | 365 | 363 | 408 | 422 | 421 | 454 | 425
COc1cc2c(Nc3ccc(Cl)c(Cl)c3F)ncnc2cc1OC[C@@H]1C[C@@H]2CN(C)C[C@@H]2C1 | 383 | 358 | 379 | 355 | 437 | 418 | 388 | 388 | 401
CC(=O)Nc1ccc([C@H](C)C(=O)Nc2ncc(C(C)C)s2)cc1 | 390 | 393 | 387 | 397 | 365 | 386 | 403 | 411 | 408
N[S+](=O)([O-])c1cc(Cl)c(Cl)c([S+](N)(=O)[O-])c1 | 450 | 446 | 449 | 453 | 445 | 458 | 448 | 460 | 473
OCc1ccc(-c2nn(Cc3ccccc3)c3ccccc23)o1 | 369 | 346 | 347 | 385 | 425 | 405 | 442 | 464 | 459
CC(=O)N1CCN(c2ccc(OC[C@H]3CO[C@](Cn4ccnc4)(c4ccc(Cl)cc4Cl)O3)cc2)CC1 | 391 | 340 | 336 | 437 | 456 | 470 | 449 | 456 | 452
O=C(CO)N1CCC(c2n[nH]c(-c3ccc(Cl)cc3)c2-c2ccncn2)CC1 | 411 | 403 | 404 | 438 | 453 | 446 | 441 | 420 | 423
Cn1c(Nc2ccc(C(F)(F)F)cc2)nc2cc(Oc3ccnc(-c4nc(C(F)(F)F)c[nH]4)c3)ccc21 | 402 | 389 | 395 | 444 | 454 | 446 | 441 | 425 | 431
O=C1Nc2cc(Br)ccc2/C1=C1/Nc2ccccc2/C1=N\O | 296 | 299 | 290 | 366 | 391 | 401 | 365 | 377 | 382
C[C@@H](O)[C@@H]1[C@H]2[C@@H](C)\C(=C(/N2C1=O)C(=O)OCOC(=O)C(C)(C)C)SC3CN(C3)/C4=N/CCS4 | 467 | 467 | 467 | 421 | 465 | 454 | 471 | 469 | 464
CC(C)[C@@H](C[S+](=O)([O-])C(C)C)N1C(=O)[C@@](C)(CC(=O)O)C[C@H](c2cccc(Cl)c2)[C@H]1c1ccc(Cl)cc1 | 355 | 289 | 360 | 306 | 357 | 362 | 278 | 320 | 335
O=C1\C=C/C[C@@H]2[C@H]3CCCN4CCC[C@@H](CN12)[C@@H]34 | 465 | 441 | 476 | 456 | 442 | 448 | 473 | 429 | 469
CC1(C)C(=O)N(CCN2CCC(C(=O)c3ccc(F)cc3)CC2)c2ccccc21 | 471 | 455 | 471 | 468 | 465 | 459 | 469 | 472 | 462
CC(=O)N1CCN(c2ccc(OCc3nn(C)c(C)c3-c3cccc4c(CCCOc5cccc6ccccc56)c(C(=O)O)n(Cc5cccnc5)c34)cc2)CC1 | 457 | 440 | 464 | 368 | 355 | 376 | 416 | 418 | 445
CN1CCC(CC1)COC2=CN=C(N=C2)C3=CC(=CC=C3)CN4/N=C(\C=C/C4=O)C5=CC(=CC=C5)C#N | – | – | – | 468 | 464 | 471 | 472 | 465 | 464
CC1=CC=CC=C1CN2C(=O)C/3=C(/CCN(CC4=CC=CC=C4)C3)N\5CC\N=C25 | 410 | 376 | 391 | 388 | 393 | 384 | 418 | 417 | 418
Cc1cccc(C)c1OCC(=O)N[C@@H](Cc1ccccc1)[C@@H](O)C[C@H](Cc1ccccc1)NC(=O)[C@H](C(C)C)N1CCCNC1=O | 391 | 435 | 435 | 443 | 418 | 422 | 443 | 448 | 414
CN(C/C=C/C#CC(C)(C)C)Cc1cccc2ccccc12 | 452 | 450 | 455 | 458 | 440 | 447 | 475 | 468 | 444
